Experimental data from patent US12544371B2, “Methods and compositions for treating acute lung injury and acute respiratory distress syndrome” (CalciMedica, Inc., priority 2020, dated 2026).
Entries after “also recorded” stand apart in the source; their conditions may differ. Read-outs that look alike come from different tables or passages of the source.

Key:
[1] = cited from earlier work
[2] = Repeat-dose toxicity study in monkeys; conditions: in vivo, monkey
Description: (§1) Hemolysis testing concluded that Compound 1 was compatible with human plasma and non-hemolytic in human blood.
Plasma concentrations of compound rise steadily during the 4-hour infusion, with Tmax achieved at the end of infusion (4 hours). After the end of infusion, there is a rapid and prominent distribution phase followed by a prolonged period of residual drug levels. The terminal elimination phase has not yet been fully characterized as it appears to be much longer than was anticipated based on pre-clinical PK data in mouse, rat, dog and monkey. Plasma concentrations during the terminal phase are approximately 5% of Cmax values and, as indicated above, to date there have been no clinically significant AEs reported during this phase. Plasma exposures, defined by AUC0-24 h, appear to be dose-proportional and reached a maximum of 6710 ng*h/mL in Group 5, which is 4.3-fold below the mean AUC24 h in monkey at the NOAEL (29,000 ng*hr/mL).

[3] = tested on: IL-2 released from human PBMCs; assay: Cytokine released from human PBMCs: IL-2; type: cell-based
Excerpt: (§2) CRAC channels may play a proximal role in a calcium-calcineurin pathway leading to cytokine release in immune cells.

[4] = tested on: cytokine release from human lymphocytes; assay: In vitro studies of cytokine release from human lymphocytes; type: cell-based
human blood and plasma = assay: Hemolysis testing
Excerpt: as §1

[5] = tested on: stimulated IL-2 release in whole blood; assay: Whole blood assay of stimulated IL-2 release; type: cell-based; conditions: Human whole blood; SEM (n); read-out: Compound 1 IC50, whole blood assay of stimulated IL-2 release
Excerpt: as §2

[6] = Phase 2 trial in severe COVID-19 pneumonia, interim results; type: in vivo, human; conditions: for Difference (Compound 1 − Standard Care), estimated mean of ordinal scale: MMRM; for Difference (Compound 1 − Standard Care), ordinal scale, sensitivity analysis: three patients with PaO2/FiO2<100 removed
Description: A phase 2 clinical trial is performed to evaluate Compound 1 in patients with severe COVID-19 pneumonia. The study will investigate the use of Compound 1 in patients with severe COVID-19 pneumonia who are at risk for progression to acute respiratory distress syndrome (ARDS).
Compound 1 Dose and Route of Administration: 2.0 mg/kg of an injectable emulsion of Compound 1 will be administered at 0 hour and 1.6 mg/kg will be administered at both 24 hours and 48 hours from the Start of the First Infusion of Study Drug (SFISD).
Study Design: In this randomized controlled open-label stage study, 60 patients who meet all of the inclusion criteria and none of the exclusion criteria will be randomized 2:1 to receive Compound 1 or continue with the local standard of care. The dose of Compound 1 will be 2.0 mg/kg of Compound 1 administered at 0 hour, and 1.6 mg/kg at 24 hours and 1.6 mg/kg at 48 hours. The SFISD should occur within 8 hours of the patient or LAR providing informed consent. The dosing will be based on actual body weight obtained at the time of hospitalization or screening for the study. A study physician or appropriately trained delegate will perform assessments at screening, immediately prior to the SFISD, and immediately prior to each subsequent infusion. At 72 hours after the SFISD, the patient will be assessed every 24 hours (±4 hours) until Day 30 after the SFISD, or until discharge if earlier. Patients who are discharged before Day 25 after the SFISD will be contacted at Day 30 (±5 days) and Day 60 (+5 days) for a safety and mortality assessment. Patients randomized to receive local standard of care will not have blood samples drawn for PK assessments.
Interim results for the phase 2 trial have been obtained, as follows. 18 patients with severe COVID-19 pneumonia have been enrolled, in which 12 treated have been treated with an injectable emulsion of Compound 1, and 6 have received the standard of care. 3 sites are currently enrolling patients. 11 of the enrolled patients are at site 1 (8 treated and 3 SOC), 3 are at site 2 (1 treated and 2 SOC), and 4 are at site 3 (3 treated and 1 SOC). The subjects with severe COVID-19 were those that necessitated low-flow oxygen treatment.
Compound 1 in Severe COVID-19 Pneumonia: Time to Hospital Discharge. One subject in standard care group was discharged with low flow treatment and is considered as censored at discharge instead of out of hospital. 3 patients who died were censored at Day 30. […] Similar improvements would be expected upon treatment with other intracellular Calcium signaling inhibitors or CRAC inhibitors.
Compound 1 in Severe COVID-19 Pneumonia: Ordinal Scale Analysis. The data in are based on an MMRM model and missing at random assumption. The ordinal scale was as follows: 1. Death 2. Hospitalized, on invasive mechanical ventilation or ECMO 3. Hospitalized, on non-invasive ventilation or high flow oxygen devices 4. Hospitalized, requiring low flow supplemental oxygen 5. Hospitalized, not requiring supplemental oxygen—requiring ongoing medical care (coronavirus (e.g. COVID-19) related or otherwise) 6. Hospitalized, not requiring supplemental oxygen—no longer requires ongoing medical care (other than per protocol study drug administration) 7. Not hospitalized. […] Similar improvements would be expected upon treatment with other intracellular Calcium signaling inhibitors or CRAC inhibitors.

[7] = tested on: IL-17 release by human PBMCs; assay: IL-17 release by human PBMCs, isolated cell assay; type: cell-based; conditions: PBMC, SEM (n), read-out: Compound 1 IC50, IL-17 release by human PBMCs
Excerpt: as §2

For Cc1cccc(F)c1C(=O)Nc1cnc(-c2cc3c(cc2Cl)OC(F)(F)O3)cn1 [Compound 1, N-(5-(6-Chloro-2,2-difluorobenzo[d][1,3]dioxol-5-yl)pyrazin-2-yl)-2-fluoro-6-methylbenzamide], the “cytokine levels in serum and lung” value ([1]; animal models) is listed as “decreases”, the “lung inflammation in animal models” value ([1]; animal models) is listed as “protect against lung inflammation” and the “efficacy following i.p. injection” value ([1]; mice, Wen et al. 2015) is listed as “effective”. For the same molecule, the “efficacy following 4-hour i.v. infusion” value ([1]; rats, Waldron et al. 2019) was “effective”, the AUC(0-t) ([2]; NOAEL 3 mg/kg/day, read-out: mean AUC24 h in monkey at the NOAEL) was 29000 ng·h/mL and the NOAEL ([2]; repeat-dose, monkeys, read-out: no observable adverse effect level (NOAEL)) was 3 mg/kg/day. It also gave an IC50 ([3]; Homo sapiens, PBMC, mean of replicates, read-out: Mean IC50, IL-2 released from human PBMCs) of 59 nM, an IC50 ([3]; Homo sapiens, PBMC, single replicates, read-out: Replicate IC50 values, IL-2 released from human PBMCs) of 71 nM and an IC50 ([3]; single replicates, read-out: Replicate IC50 values, IL-2 released from human PBMCs) of 47 nM. The “inhibition of cytokine release from human lymphocytes” value [4] was “inhibits release of multiple cytokines; also recorded: potent, concentration-dependent inhibition”, the “compatibility with human plasma” value (human blood and plasma) was “compatible” and the “hemolysis in human blood” value (human blood and plasma) was “non-hemolytic”. For the same molecule, the IC50 [5] was 178 ± 32 nM, the “Difference (Compound 1 − Standard Care), estimated mean of ordinal scale” value (from here on “Difference … of ordinal scale”) ([6]; Study Day 0) was 0.00 and the “Difference (Compound 1 − Standard Care), ordinal scale, sensitivity analysis” value (“Difference … sensitivity analysis” below) ([6]; Study Day 0) was 0.00. The “Difference … of ordinal scale” value ([6]; Study Day 1) was 0.75, the “Difference … sensitivity analysis” value ([6]; Study Day 1) was 0.70 and the “Difference … of ordinal scale” value ([6]; Study Day 2) was 0.83. For the same molecule, the “Difference … sensitivity analysis” value ([6]; Study Day 2) was 0.80, the “Difference … of ordinal scale” value ([6]; Study Day 3) was 1.17 and the “Difference … sensitivity analysis” value ([6]; Study Day 3) was 1.10. The “Difference … of ordinal scale” value ([6]; Study Day 4) was 1.73, the “Difference … sensitivity analysis” value ([6]; Study Day 4) was 1.76 and the “Difference … of ordinal scale” value ([6]; Study Day 5) was 1.87. The “Difference … sensitivity analysis” value ([6]; Study Day 5) was 2.02, the “Difference … of ordinal scale” value ([6]; Study Day 6) was 2.04 and the “Difference … sensitivity analysis” value ([6]; Study Day 6) was 2.23. The “Difference … of ordinal scale” value ([6]; Study Day 7) was 1.30, the “Difference … sensitivity analysis” value ([6]; Study Day 7) was 1.79 and the “Difference … of ordinal scale” value ([6]; Study Day 8) was 1.39. The “Difference … sensitivity analysis” value ([6]; Study Day 8) was 1.89, the “Difference … of ordinal scale” value ([6]; Study Day 9) was 1.48 and the “Difference … sensitivity analysis” value ([6]; Study Day 9) was 1.90. The “Difference … of ordinal scale” value ([6]; Study Day 10) was 1.21, the “Difference … sensitivity analysis” value ([6]; Study Day 10) was 1.81 and the “Difference … of ordinal scale” value ([6]; Study Day 12) was 1.31. For the same molecule, the “Difference … sensitivity analysis” value ([6]; Study Day 12) was 1.81, the “Difference … of ordinal scale” value ([6]; Study Day 14) was 1.05 and the “Difference … sensitivity analysis” value ([6]; Study Day 14) was 2.07. For the same molecule, the “Difference … sensitivity analysis” value ([6]; Study Day 16) was 1.82, the “Difference … sensitivity analysis” value ([6]; Study Day 18) was 1.83 and the “ordinal scale (7-point)” value ([6]; interim) was “improvement”. For the same molecule, the “Subjects out of hospital” value ([6]; interim, 9/12 subjects) was 9/12 (75%), the PaO2/FiO2 ([6]; interim, following administration) was “increased” and the “probability of being at a hospital over time” value ([6]; interim, versus standard care) was “lower probability of being at a hospital over time”. For the same molecule, the “KM estimate of number of days in hospital, median” value ([6]; interim, 95% CI (4 days, na)) was 5.5 days (4 days, na) and the IC50 [7] was 122 ± 36 nM.
